Measured values published in patent publication US8815882B2, “Pyrazole aminopyrimidine derivatives as LRRK2 modulators” (Genentech, Inc., priority 2010, dated 2014).

Target: T1, LRRK2 (Homo sapiens, UniProt Q5S007, G2019S)
T1 construct: purchased Invitrogen PV4882 (lot 567054A)
Experiment: In Vitro LRRK2 Assay (LabChip 3000, fluorescently-labeled peptide substrate, ATP)
Type: biochemical
Conditions: read-out: LRRK2 Ki (KI), Table 8
Method in brief: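 LRRK2, fluorescent peptide substrate (diluted to 4 μM before mixing), ATP and compound were incubated 2 h in the dark, then stopped. Phosphorylated and unphosphorylated peptide were separated by capillary electrophoresis and quantified by fluorescence. Ki was fitted with a tight-binding equation including enzyme concentration, S and Km; IC50 or percent inhibition were also reported.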

T1 sequence (Q5S007 whole entry G2019S): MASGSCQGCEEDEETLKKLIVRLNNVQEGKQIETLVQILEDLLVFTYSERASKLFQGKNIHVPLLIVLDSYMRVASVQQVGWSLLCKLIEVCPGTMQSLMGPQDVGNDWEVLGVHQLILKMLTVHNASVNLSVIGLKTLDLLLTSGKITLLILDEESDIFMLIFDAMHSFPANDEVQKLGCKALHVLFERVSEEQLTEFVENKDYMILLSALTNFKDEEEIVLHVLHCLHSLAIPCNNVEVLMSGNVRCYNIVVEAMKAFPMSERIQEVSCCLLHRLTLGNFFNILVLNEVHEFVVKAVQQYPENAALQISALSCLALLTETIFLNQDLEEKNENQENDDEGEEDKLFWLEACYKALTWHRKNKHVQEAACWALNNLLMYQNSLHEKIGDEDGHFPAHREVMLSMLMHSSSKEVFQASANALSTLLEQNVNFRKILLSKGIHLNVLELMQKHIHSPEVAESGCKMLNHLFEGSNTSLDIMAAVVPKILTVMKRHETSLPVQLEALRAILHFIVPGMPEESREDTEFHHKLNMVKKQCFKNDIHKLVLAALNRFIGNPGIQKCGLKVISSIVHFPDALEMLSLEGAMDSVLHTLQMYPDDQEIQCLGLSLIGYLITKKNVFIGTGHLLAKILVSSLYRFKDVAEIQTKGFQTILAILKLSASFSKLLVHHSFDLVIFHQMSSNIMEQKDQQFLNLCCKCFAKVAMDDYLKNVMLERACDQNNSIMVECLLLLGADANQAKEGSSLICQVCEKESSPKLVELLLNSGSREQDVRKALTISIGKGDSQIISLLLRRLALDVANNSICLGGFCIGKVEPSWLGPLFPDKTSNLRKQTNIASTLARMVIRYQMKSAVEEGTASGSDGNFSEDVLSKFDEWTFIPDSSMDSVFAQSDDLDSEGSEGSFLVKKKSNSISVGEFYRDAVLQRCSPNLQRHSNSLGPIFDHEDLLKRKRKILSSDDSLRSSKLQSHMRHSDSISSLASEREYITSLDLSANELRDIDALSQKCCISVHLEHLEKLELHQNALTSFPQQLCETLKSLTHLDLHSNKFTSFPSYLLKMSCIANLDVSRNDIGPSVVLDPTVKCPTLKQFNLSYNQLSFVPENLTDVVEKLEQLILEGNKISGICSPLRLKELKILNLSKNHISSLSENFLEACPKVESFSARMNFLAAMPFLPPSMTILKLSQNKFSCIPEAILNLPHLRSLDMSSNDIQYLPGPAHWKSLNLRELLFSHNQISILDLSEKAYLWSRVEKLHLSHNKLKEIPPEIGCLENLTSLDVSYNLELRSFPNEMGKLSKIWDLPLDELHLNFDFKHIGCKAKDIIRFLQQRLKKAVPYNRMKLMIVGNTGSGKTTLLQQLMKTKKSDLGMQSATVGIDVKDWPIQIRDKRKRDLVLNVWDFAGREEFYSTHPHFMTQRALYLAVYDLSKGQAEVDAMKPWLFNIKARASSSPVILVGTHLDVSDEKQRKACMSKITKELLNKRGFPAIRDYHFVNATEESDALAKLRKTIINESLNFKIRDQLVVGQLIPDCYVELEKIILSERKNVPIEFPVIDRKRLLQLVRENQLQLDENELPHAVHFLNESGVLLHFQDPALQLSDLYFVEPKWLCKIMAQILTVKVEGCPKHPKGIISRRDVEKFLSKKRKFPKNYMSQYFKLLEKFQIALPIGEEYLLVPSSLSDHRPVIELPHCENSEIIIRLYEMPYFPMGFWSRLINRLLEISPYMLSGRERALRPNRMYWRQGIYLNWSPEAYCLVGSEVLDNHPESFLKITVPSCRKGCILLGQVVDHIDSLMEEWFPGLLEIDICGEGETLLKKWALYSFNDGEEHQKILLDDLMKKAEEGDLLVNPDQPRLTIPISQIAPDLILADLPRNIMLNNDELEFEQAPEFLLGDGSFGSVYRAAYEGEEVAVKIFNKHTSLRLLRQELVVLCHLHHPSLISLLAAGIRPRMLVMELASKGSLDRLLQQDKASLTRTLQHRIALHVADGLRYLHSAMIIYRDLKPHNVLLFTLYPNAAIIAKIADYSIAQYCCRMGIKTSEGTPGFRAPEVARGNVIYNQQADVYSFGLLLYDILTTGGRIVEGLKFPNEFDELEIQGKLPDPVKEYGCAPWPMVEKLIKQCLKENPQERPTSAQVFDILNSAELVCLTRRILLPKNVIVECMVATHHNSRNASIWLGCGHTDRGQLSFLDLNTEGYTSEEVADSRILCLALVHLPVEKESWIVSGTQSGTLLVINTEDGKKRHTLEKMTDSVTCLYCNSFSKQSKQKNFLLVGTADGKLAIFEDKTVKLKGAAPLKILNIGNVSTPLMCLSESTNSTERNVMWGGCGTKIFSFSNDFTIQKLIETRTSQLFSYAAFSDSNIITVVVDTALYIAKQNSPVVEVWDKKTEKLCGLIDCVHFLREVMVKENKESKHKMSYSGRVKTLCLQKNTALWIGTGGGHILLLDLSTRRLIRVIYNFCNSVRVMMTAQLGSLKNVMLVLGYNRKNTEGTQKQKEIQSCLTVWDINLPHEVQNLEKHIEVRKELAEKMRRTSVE

Row | SMILES | Ki [nM]
1 | CNc1nc(Nc2cnn(C3CCOC3)c2C)ncc1C(F)(F)F (stereo not drawn) [Example 150, N4-methyl-N2-(5-methyl-1-(tetrahydrofuran-3-yl)-1H-pyrazol-4-yl)-5-(trifluoromethyl) pyrimidine-2,4-diamine] | 5.1
2 | CCNc1nc(Nc2cnn(C3CCC(=O)N(C)C3)c2C)ncc1C(F)(F)F (stereo not drawn) [Example 151, 5-(4-(4-(ethylamino)-5-(trifluoromethyl)pyrimidin-2-ylamino)-5-methyl-1H-pyrazol-1-yl)-1-methylpiperidin-2-one] | 1.1
3 | CCNc1nc(Nc2cn(C3CCC(=O)N(C)C3)nc2C)ncc1C(F)(F)F (stereo not drawn) [Example 152, 5-(4-(4-(ethylamino)-5-(trifluoromethyl)pyrimidin-2-ylamino)-3-methyl-1H-pyrazol-1-yl)-1-methylpiperidin-2-one] | 7.3
4 | CNc1nc(Nc2cn(C3CCC(=O)NC3)nc2C)ncc1C(F)(F)F (stereo not drawn) [Example 153, 5-(3-methyl-4-(4-(methylamino)-5-(trifluoromethyl)pyrimidin-2-ylamino)-1H-pyrazol-1-yl)piperidin-2-one] | 9.7
5 | CNc1nc(Nc2cnn(C3CCC(=O)NC3)c2C)ncc1C(F)(F)F (stereo not drawn) [Example 154, 5-(5-methyl-4-(4-(methylamino)-5-(trifluoromethyl)pyrimidin-2-ylamino)-1H-pyrazol-1-yl)piperidin-2-one] | 2.2
6 | CNc1nc(Nc2cnn(-c3ccc(C(=O)N(C)C)cc3)c2C)ncc1C(F)(F)F [Example 156, N,N-dimethyl-4-(5-methyl-4-(4-(methylamino)-5-(trifluoromethyl)pyrimidin-2-ylamino)-1H-pyrazol-1-yl)benzamide] | 0.3
7 | CCNc1nc(Nc2cnn(-c3ccc(C(=O)N(C)C)cc3)c2C)ncc1C(F)(F)F [Example 157, 4-(4-(4-(ethylamino)-5-(trifluoromethyl)pyrimidin-2-ylamino)-5-methyl-1H-pyrazol-1-yl)-N,N-dimethylbenzamide] | 0.3
8 | CCNc1nc(Nc2cnn(C3CCOCC3)c2C)ncc1C(F)(F)F [Example 158, N4-ethyl-N2-(5-methyl-1-(tetrahydro-2H-pyran-4-yl)-1H-pyrazol-4-yl)-5-(trifluoromethyl) pyrimidine-2,4-diamine] | 0.3
9 | CCNc1nc(Nc2cn(C3CCOCC3)nc2C)ncc1C(F)(F)F [Example 159, N4-ethyl-N2-(3-methyl-1-(tetrahydro-2H-pyran-4-yl)-1H-pyrazol-4-yl)-5-(trifluoromethyl) pyrimidine-2,4-diamine] | 3.9
10 | CCNc1nc(Nc2cn(S(C)(=O)=O)nc2C)ncc1C(F)(F)F [Example 160, N4-ethyl-N2-(3-methyl-1-(methylsulfonyl)-1H-pyrazol-4-yl)-5-(trifluoromethyl) pyrimidine-2,4-diamine] | 0.3
11 | CNc1nc(Nc2cn(-c3ccc(S(=O)(=O)C4CC4)cc3)nc2C)ncc1C(F)(F)F [Example 161, N2-(1-(4-(cyclopropyl-sulfonyl)phenyl)-3-methyl-1H-pyrazol-4-yl)-N4-methyl-5-(trifluoromethyl) pyrimidine-2,4-diamine] | 0.3
12 | CCNc1nc(Nc2cnn(-c3ccc(C#N)cc3)c2C)ncc1C(F)(F)F [Example 162, 4-(4-(4-(ethylamino)-5-(trifluoromethyl)pyrimidin-2-ylamino)-5-methyl-1H-pyrazol-1-yl)benzonitrile] | 0.3
13 | CCNc1nc(Nc2cnn(-c3ccc(S(C)(=O)=O)cc3)c2C)ncc1C(F)(F)F [Example 163, N4-ethyl-N2-(5-methyl-1-(4-(methylsulfonyl)phenyl)-1H-pyrazol-4-yl)-5-(trifluoromethyl) pyrimidine-2,4-diamine] | 0.3
14 | CNc1nc(Nc2cn(-c3ccc(C(=O)N(C)C)cc3)nc2C)ncc1C(F)(F)F [Example 164, N,N-dimethyl-4-(3-methyl-4-(4-(methylamino)-5-(trifluoromethyl)pyrimidin-2-ylamino)-1H-pyrazol-1-yl)benzamide] | 5.7
15 | CNc1nc(Nc2cnn(CC3CC3)c2C)ncc1C(F)(F)F [Example 165, N2-(1-(cyclopropyl-methyl)-5-methyl-1H-pyrazol-4-yl)-N4-methyl-5-(trifluoromethyl) pyrimidine-2,4-diamine] | 1.2
16 | CNc1nc(Nc2cn(CC3CC3)nc2C)ncc1C(F)(F)F [Example 166, N2-(1-(cyclopropyl-methyl)-3-methyl-1H-pyrazol-4-yl)-N4-methyl-5-(trifluoromethyl) pyrimidine-2,4-diamine] | 4.5
17 | CNc1nc(Nc2cnn(-c3ccc(S(=O)(=O)C4CC4)cc3)c2C)ncc1C(F)(F)F [Example 167, N2-(1-(4-(cyclopropyl-sulfonyl)phenyl)-5-methyl-1H-pyrazol-4-yl)-N4-methyl-5-(trifluoromethyl) pyrimidine-2,4-diamine] | 18.8
18 | CNc1nc(Nc2cnn(C3COC3)c2Cl)ncc1C(F)(F)F [Example 168, N2-(5-chloro-1-(oxetan-3-yl)-1H-pyrazol-4-yl)-N4-methyl-5-(trifluoromethyl) pyrimidine-2,4-diamine] | 9.5

Row | SMILES | Ki [nM]
19 | CCNc1nc(Nc2cnn(CC3(C)COC3)c2C)ncc1C(F)(F)F [Example 169, N4-ethyl-N2-(5-methyl-1-((3-methyloxetan-3-yl)methyl)-1H-pyrazol-4-yl)-5-(trifluoromethyl) pyrimidine-2,4-diamine] | 2.2
20 | CNc1nc(Nc2cn(S(=O)(=O)C3CC3)nc2C)ncc1C(F)(F)F [Example 170, N2-(1-(cyclopropyl-sulfonyl)-3-methyl-1H-pyrazol-4-yl)-N4-methyl-5-(trifluoromethyl) pyrimidine-2,4-diamine] | 2
21 | CCNc1nc(Nc2cn(S(=O)(=O)C3CC3)nc2C)ncc1C(F)(F)F [Example 171, N2-(1-(cyclopropyl-sulfonyl)-3-methyl-1H-pyrazol-4-yl)-N4-ethyl-5-(trifluoromethyl) pyrimidine-2,4-diamine] | 0.9
22 | Cc1c(Nc2ncc(Cl)c(NCC(F)F)n2)cnn1C [Example 172, 5-chloro-N4-(2,2-difluoroethyl)-N2-(1,5-dimethyl-1H-pyrazol-4-yl)pyrimidine-2,4-diamine] | 7
23 | Cc1nc(Nc2cn(-c3ccc(S(C)(=O)=O)cc3)nc2C)ncc1Cl [Example 173, 5-chloro-4-methyl-N-(3-methyl-1-(4-(methylsulfonyl)phenyl)-1H-pyrazol-4-yl)pyrimidin-2-amine] | 484
24 | CCNc1nc(Nc2cnn(-c3ccc(S(=O)(=O)C4CC4)cc3)c2C)ncc1C(F)(F)F [Example 174, N2-(1-(4-(cyclopropyl-sulfonyl)phenyl)-5-methyl-1H-pyrazol-4-yl)-N4-ethyl-5-(trifluoromethyl) pyrimidine-2,4-diamine] | 1.1
25 | CNc1nc(Nc2cnn(C3CCN(C(=O)C(C)C)CC3)c2C)ncc1C(F)(F)F [Example 175, 2-methyl-1-(4-(5-methyl-4-(4-(methylamino)-5-(trifluoromethyl)pyrimidin-2-ylamino)-1H-pyrazol-1-yl)piperidin-1-yl)propan-1-one] | 6.8
26 | CCNc1nc(Nc2ccnn2C)ncc1C(F)(F)F [Example 176, N4-ethyl-N2-(1-methyl-1H-pyrazol-5-yl)-5-(trifluoromethyl) pyrimidine-2,4-diamine] | 11
27 | CNc1nc(Nc2cn(C)nc2C2CC2)ncc1C(F)(F)F [Example 177, N2-(3-cyclopropyl-1-methyl-1H-pyrazol-4-yl)-N4-methyl-5-(trifluoromethyl) pyrimidine-2,4-diamine] | 6.7
28 | CNc1nc(Nc2cnn(C)c2C2CC2)ncc1C(F)(F)F [Example 178, N2-(5-cyclopropyl-1-methyl-1H-pyrazol-4-yl)-N4-methyl-5-(trifluoromethyl) pyrimidine-2,4-diamine] | 12
29 | CNc1nc(Nc2cnn(CC3(C)COC3)c2C)ncc1C(F)(F)F [Example 179, N4-methyl-N2-(5-methyl-1-((3-methyloxetan-3-yl)methyl)-1H-pyrazol-4-yl)-5-(trifluoromethyl) pyrimidine-2,4-diamine] | 9
30 | CNc1nc(Nc2cnn(CC3(C)COC3)c2Cl)ncc1C(F)(F)F [Example 180, N2-(5-chloro-1-((3-methyloxetan-3-yl)methyl)-1H-pyrazol-4-yl)-N4-methyl-5-(trifluoromethyl) pyrimidine-2,4-diamine] | 5.6
31 | CCNc1nc(Nc2cnn(C3CCN(C(=O)C(C)C)CC3)c2C)ncc1C(F)(F)F [Example 181, l-(4-(4-(4-(ethylamino)-5-(trifluoromethyl)pyrimidin-2-ylamino)-5-methyl-1H-pyrazol-1-yl)piperidin-1-yl)-2-methylpropan-1-one] | 0.82
32 | CCNc1nc(Nc2cn(C3CN(C4COC4)C3)nc2C)ncc1C(F)(F)F [Example 182, N4-ethyl-N2-(3-methyl-1-(1-(oxetan-3-yl)azetidin-3-yl)-1H-pyrazol-4-yl)-5-(trifluoromethyl) pyrimidine-2,4-diamine] | 1.5
33 | CCNc1nc(Nc2cn(C3CCN(C(=O)C4CC4)CC3)nc2C)ncc1C(F)(F)F [Example 183, cyclopropyl(4-(4-(4-(ethylamino)-5-(trifluoromethyl)pyrimidin-2-ylamino)-3-methyl-1H-pyrazol-1-yl)piperidin-1-yl)methanone] | 0.6
34 | CCNc1nc(Nc2cnn(C3CCN(C(=O)C4CC4)CC3)c2C)ncc1C(F)(F)F [Example 184, cyclopropyl(4-(4-(4-(ethylamino)-5-(trifluoromethyl)pyrimidin-2-ylamino)-5-methyl-1H-pyrazol-1-yl)piperidin-1-yl)methanone] | 4.7
35 | CCNc1nc(Nc2ccn(CC)n2)ncc1C(F)(F)F [Example 186, N4-ethyl-N2-(1-ethyl-1H-pyrazol-3-yl)-5-(trifluoromethyl) pyrimidine-2,4-diamine] | 1.9
36 | CNc1nc(Nc2cnn(C[C@H](C)OC)c2C)ncc1C(F)(F)F [Example 187, (S)-N2-(1-(2-methoxypropyl)-5-methyl-1H-pyrazol-4-yl)-N4-methyl-5-(trifluoromethyl) pyrimidine-2,4-diamine] | 18.8
